# Data: PubChem BioAssay AID2060336 (Molecular Pharmacology Branch, DTP, NCI, 2025)
# Values joined by “and” are separate entries in the source; they are usually repeats but may differ in a detail not shown here. Identical values can stand only once.
# System: 958767-090-R-J1-PDC spheroid growth
# Test: Anticancer human tumor 958767-090-R-J1-PDC patient-derived head and neck squamous carcinoma cell line growth inhibition [IpAb]
# Details: spheroids with HUVEC and MSC; for viability, T/C: stronger effect = lower value
# In short: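 Combinations with ipatasertib or abemaciclib were tested on tumour spheroids holding HUVEC (25%) and MSC (15%) alongside 60% malignant cells. Top concentration was at or near clinical Cmax (10 microM if undefined), descending in half-log steps.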
# [1] = curve of first compound, second compound 0.01 µM
# [2] = curve of first compound, second compound 0.0316 µM
# [3] = curve of first compound, second compound 0.1 µM
# [4] = curve of first compound, second compound 0.316 µM
# [5] = curve of first compound, second compound 1 µM
# [6] = second compound 0.01 µM, first compound 0.0316 µM
# [7] = second compound 0.01 µM, first compound 0.1 µM
# [8] = second compound 0.01 µM, first compound 0.316 µM
# [9] = second compound 0.01 µM, first compound 1 µM
# [10] = second compound 0.01 µM, first compound 3.16 µM
# [11] = second compound 0.01 µM, first compound 10 µM
# [12] = second compound 0.0316 µM, first compound 0.0316 µM
# [13] = second compound 0.0316 µM, first compound 0.1 µM
# [14] = second compound 0.0316 µM, first compound 0.316 µM
# [15] = second compound 0.0316 µM, first compound 1 µM
# [16] = second compound 0.0316 µM, first compound 3.16 µM
# [17] = second compound 0.0316 µM, first compound 10 µM
# [18] = second compound 0.1 µM, first compound 0.0316 µM
# [19] = second compound 0.1 µM, first compound 0.1 µM
# [20] = second compound 0.1 µM, first compound 0.316 µM
# [21] = second compound 0.1 µM, first compound 1 µM
# [22] = second compound 0.1 µM, first compound 3.16 µM
# [23] = second compound 0.1 µM, first compound 10 µM
# [24] = second compound 0.316 µM, first compound 0.0316 µM
# [25] = second compound 0.316 µM, first compound 0.1 µM
# [26] = second compound 0.316 µM, first compound 0.316 µM
# [27] = second compound 0.316 µM, first compound 1 µM
# [28] = second compound 0.316 µM, first compound 3.16 µM
# [29] = second compound 0.316 µM, first compound 10 µM
# [30] = second compound 1 µM, first compound 0.0316 µM
# [31] = second compound 1 µM, first compound 0.1 µM
# [32] = second compound 1 µM, first compound 0.316 µM
# [33] = second compound 1 µM, first compound 1 µM
# [34] = second compound 1 µM, first compound 3.16 µM
# [35] = second compound 1 µM, first compound 10 µM
# 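Also: spheroids exposed to agents for 7 days.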
# 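For viability, T/C in this document: 100% = DMSO vehicle control wells.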
structure (smiles),measurement,setting,value
CCCS(=O)(=O)Nc1ccc(F)c(C(=O)c2c[nH]c3ncc(-c4ccc(Cl)cc4)cc23)c1F + CCN1CCN(Cc2ccc(Nc3ncc(F)c(-c4cc(F)c5nc(C)n(C(C)C)c5c4)n3)nc2)CC1,IC50,[1],> 10000 nM
same,IC50,[2],9200 nM
same,IC50,[3],8260 nM
same,IC50,[4],> 10000 nM
same,IC50,[5],> 10000 nM
same,"viability, T/C",[6],93.1%
same,"viability, T/C",[7],93.6%
same,"viability, T/C",[8],91.4%
same,"viability, T/C",[9],93.7%
same,"viability, T/C",[10],87.7%
same,"viability, T/C",[11],60.2%
same,"viability, T/C",[12],88.5%
same,"viability, T/C",[13],93.2%
same,"viability, T/C",[14],92.1%
same,"viability, T/C",[15],73.6%
same,"viability, T/C",[16],62%
same,"viability, T/C",[17],48.3%
same,"viability, T/C",[18],83.3%
same,"viability, T/C",[19],82%
same,"viability, T/C",[20],82.9%
same,"viability, T/C",[21],70.8%
same,"viability, T/C",[22],71.7%
same,"viability, T/C",[23],45.6%
same,"viability, T/C",[24],66.1%
same,"viability, T/C",[25],54.8%
same,"viability, T/C",[26],56.7%
same,"viability, T/C",[27],67.8%
same,"viability, T/C",[28],67.1%
same,"viability, T/C",[29],44.4%
same,"viability, T/C",[30],89.5%
same,"viability, T/C",[31],78.6%
same,"viability, T/C",[32],74.9%
same,"viability, T/C",[33],79.5%
same,"viability, T/C",[34],69.5%
same,"viability, T/C",[35],51.9%
Cc1nc(NC(=O)N2CCCC2C(N)=O)sc1-c1ccnc(C(C)(C)C(F)(F)F)c1 (stereo unspecified) + CCN1CCN(Cc2ccc(Nc3ncc(F)c(-c4cc(F)c5nc(C)n(C(C)C)c5c4)n3)nc2)CC1,IC50,[1],171 nM
same,IC50,[2],59 nM
same,IC50,[3],< 31.6 nM
same,IC50,[4],< 31.6 nM
same,IC50,[5],141 nM
same,"viability, T/C",[6],65.3%
same,"viability, T/C",[7],56.4%
same,"viability, T/C",[8],42.7%
same,"viability, T/C",[9],31.7%
same,"viability, T/C",[10],19.3%
same,"viability, T/C",[11],11.2%
same,"viability, T/C",[12],57.6%
same,"viability, T/C",[13],40.5%
same,"viability, T/C",[14],36.4%
same,"viability, T/C",[15],27.2%
same,"viability, T/C",[16],15.9%
same,"viability, T/C",[17],9.45%
same,"viability, T/C",[18],49.9%
same,"viability, T/C",[19],43.3%
same,"viability, T/C",[20],34.9%
same,"viability, T/C",[21],24.9%
same,"viability, T/C",[22],15.8%
same,"viability, T/C",[23],9.36%
same,"viability, T/C",[24],39.5%
same,"viability, T/C",[25],39.3%
same,"viability, T/C",[26],27.6%
same,"viability, T/C",[27],20.7%
same,"viability, T/C",[28],17.1%
same,"viability, T/C",[29],10.8%
same,"viability, T/C",[30],62.6%
same,"viability, T/C",[31],56.2%
same,"viability, T/C",[32],38.3%
same,"viability, T/C",[33],31.5%
same,"viability, T/C",[34],19.9%
same,"viability, T/C",[35],13.2%
Cn1ncc(Cl)c1-c1cc(C(=O)NC(CN)Cc2cccc(F)c2)sc1Cl (stereo unspecified),"viability, T/C",compound 0.0316 µM,81.8% and 95%
same,"viability, T/C",compound 0.1 µM,73.2% and 88.4%
same,"viability, T/C",compound 0.316 µM,68.2% and 60.5%
same,"viability, T/C",compound 1 µM,57.1% and 44.8%
same,"viability, T/C",compound 3.16 µM,39% and 31.4%
same,"viability, T/C",compound 10 µM,0.18% and 0.23%
same,IC50,curve of compound,1540 nM and 837 nM
Cn1ncnc1[C@H]1c2n[nH]c(=O)c3cc(F)cc(c23)N[C@@H]1c1ccc(F)cc1 + CC(C)NCC(C(=O)N1CCN(c2ncnc3c2C(C)CC3O)CC1)c1ccc(Cl)cc1,IC50,[3],> 100 nM
same,IC50,[4],> 100 nM
same,IC50,[5],> 100 nM
same,IC50,"curve of first compound, second compound 3.16 µM",> 100 nM
same,IC50,"curve of first compound, second compound 10 µM",51.3 nM
same,"viability, T/C","second compound 0.1 µM, first compound 0.000316 µM",91.5%
same,"viability, T/C","second compound 0.1 µM, first compound 0.001 µM",87.8%
same,"viability, T/C","second compound 0.1 µM, first compound 0.00316 µM",91.2%
same,"viability, T/C","second compound 0.1 µM, first compound 0.01 µM",83.7%
same,"viability, T/C",[18],87.4%
same,"viability, T/C",[19],73%
same,"viability, T/C","second compound 0.316 µM, first compound 0.000316 µM",70%
same,"viability, T/C","second compound 0.316 µM, first compound 0.001 µM",77.4%
same,"viability, T/C","second compound 0.316 µM, first compound 0.00316 µM",74.7%
same,"viability, T/C","second compound 0.316 µM, first compound 0.01 µM",86.8%
same,"viability, T/C",[24],77.6%
same,"viability, T/C",[25],65.8%
same,"viability, T/C","second compound 1 µM, first compound 0.000316 µM",69.5%
same,"viability, T/C","second compound 1 µM, first compound 0.001 µM",63.9%
same,"viability, T/C","second compound 1 µM, first compound 0.00316 µM",72.2%
same,"viability, T/C","second compound 1 µM, first compound 0.01 µM",74.2%
same,"viability, T/C",[30],62.4%
same,"viability, T/C",[31],56.4%
same,"viability, T/C","second compound 3.16 µM, first compound 0.000316 µM",65%
same,"viability, T/C","second compound 3.16 µM, first compound 0.001 µM",52.6%
same,"viability, T/C","second compound 3.16 µM, first compound 0.00316 µM",58.8%
same,"viability, T/C","second compound 3.16 µM, first compound 0.01 µM",70.2%
same,"viability, T/C","second compound 3.16 µM, first compound 0.0316 µM",62.4%
same,"viability, T/C","second compound 3.16 µM, first compound 0.1 µM",59.3%
same,"viability, T/C","second compound 10 µM, first compound 0.000316 µM",63.3%
same,"viability, T/C","second compound 10 µM, first compound 0.001 µM",55.3%
same,"viability, T/C","second compound 10 µM, first compound 0.00316 µM",58.1%
same,"viability, T/C","second compound 10 µM, first compound 0.01 µM",58.4%
same,"viability, T/C","second compound 10 µM, first compound 0.0316 µM",56%
same,"viability, T/C","second compound 10 µM, first compound 0.1 µM",42%
CC1(C)CCC(CN2CCN(c3ccc(C(=O)NS(=O)(=O)c4ccc(NCC5CCOCC5)c([N+](=O)[O-])c4)c(Oc4cnc5[nH]ccc5c4)c3)CC2)=C(c2ccc(Cl)cc2)C1,"viability, T/C",compound 0.0316 µM,79.8% and 92%
same,"viability, T/C",compound 0.1 µM,86.8% and 104%
same,"viability, T/C",compound 0.316 µM,90.3% and 99%
same,"viability, T/C",compound 1 µM,93.9% and 100%
same,"viability, T/C",compound 3.16 µM,105% and 112%
same,"viability, T/C",compound 10 µM,5.27% and 4.22%
same,IC50,curve of compound,5490 nM and 5830 nM
C=CC(=O)N1CCN(c2nc(=O)n(-c3c(C)ccnc3C(C)C)c3nc(-c4c(O)cccc4F)c(F)cc23)C(C)C1 (stereo unspecified),"viability, T/C",compound 0.0316 µM,99.7% and 95%
same,"viability, T/C",compound 0.1 µM,93.8% and 88.2%
same,"viability, T/C",compound 0.316 µM,97.1% and 102%
same,"viability, T/C",compound 1 µM,94.9% and 107%
same,"viability, T/C",compound 3.16 µM,83.6% and 75.9%
same,"viability, T/C",compound 10 µM,39.8%
same,IC50,curve of compound,7660 nM and 7220 nM
